Measurements taken from patent publication US8933114B2, “Polymorphic forms of asenapine maleate and processes for their preparation” (Chemo Iberica, S.A., priority 2010, dated 2015).
Structures can show the parent of a compound that is named as a salt.

Legend:
[1] = stability of the polymorphic forms at room temperature; type: physicochemical; conditions: solid form
[2] = micronization step starting from the monoclinic form; cited from earlier work
[3] = solid-state stability of the freeze-dried amorphous form upon standing; type: physicochemical; conditions: amorphous form prepared by freeze-drying
Text: WO 2008/040816 discloses an amorphous form of asenapine maleate, prepared via spray-drying or freeze-drying processes.

For `CN1C[C@H]2c3ccccc3Oc3ccc(Cl)cc3[C@@H]2C1` [Form G, asenapine maleate], the “stability at room temperature” value [1] was “stable at room temperature”.

In the case of `CN1C[C@H]2c3ccccc3Oc3ccc(Cl)cc3[C@@H]2C1` [Form H, asenapine maleate], the “polymorphic form obtained after micronization” value [2] is listed as “an unpredictable mixture of Form H and Form L is obtained”.

With `CN1C[C@H]2c3ccccc3Oc3ccc(Cl)cc3[C@@H]2C1` [amorphous form, asenapine maleate] the “stability of solid form upon standing” value [3] was “not stable, and spontaneously converts into Form H upon standing”.
